Test results as given in ChEMBL document CHEMBL1201862, “PubChem BioAssay data set” (2004).
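A five-concentration, 48-hour dose response in 96-well plates underlies each endpoint, interpolated linearly between surrounding concentrations. Abbreviation: GI50, concentration required for 50% inhibition of growth.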 Calls of active or inactive are those of the source. Rule as the data show it: active = GI50 up to about 1.1 µM and inactive = higher.

Assays:
Assay in all cases: NCI anticancer screen, dose series, 48 h
LXFL 529 = tested on: LXFL 529
SF-268 = tested on: SF-268
786-0 = tested on: 786-0
UO-31 = tested on: UO-31
KM-20L2 = tested on: KM-20L2
MOLT-4 = tested on: MOLT-4
NCI-H23 = tested on: NCI-H23
HCT-116 = tested on: HCT-116
K562 = tested on: K562
OVCAR-8 = tested on: OVCAR-8
CCRF-CEM = tested on: CCRF-CEM
SF-295 = tested on: SF-295
SW-620 = tested on: SW-620
HOP-62 = tested on: HOP-62
NCI-H522 = tested on: NCI-H522
ACHN = tested on: ACHN
SNB-75 = tested on: SNB-75
SNB-19 = tested on: SNB-19
A549 = tested on: A549
M19-MEL = tested on: M19-MEL
SK-MEL-28 = tested on: SK-MEL-28
HT-29 = tested on: HT-29
HCT-15 = tested on: HCT-15
HL-60 = tested on: HL-60
SNB-78 = tested on: SNB-78
SF-539 = tested on: SF-539
A498 = tested on: A498
HCC 2998 = tested on: HCC 2998
M14 = tested on: M14
HOP-18 = tested on: HOP-18
UACC-257 = tested on: UACC-257
DMS-273 = tested on: DMS-273
SK-OV-3 = tested on: SK-OV-3
UACC-62 = tested on: UACC-62
XF498 = tested on: XF498
SK-MEL-5 = tested on: SK-MEL-5
IGROV-1 = tested on: IGROV-1
HOP-92 = tested on: HOP-92
Malme-3M = tested on: Malme-3M
DLD-1 = tested on: DLD-1
SN12C = tested on: SN12C
RXF 393 = tested on: RXF 393
NCI-H226 = tested on: NCI-H226
COLO 205 = tested on: COLO 205
OVCAR-4 = tested on: OVCAR-4
SR = tested on: SR
U-251 = tested on: U-251
RPMI-8226 = tested on: RPMI-8226
EKVX = tested on: EKVX
TK-10 = tested on: TK-10
OVCAR-5 = tested on: OVCAR-5
LOX IMVI = tested on: LOX IMVI
KM12 = tested on: KM12
NCI-H460 = tested on: NCI-H460
CAKI-1 = tested on: CAKI-1
SK-MEL-2 = tested on: SK-MEL-2
DMS-114 = tested on: DMS-114
OVCAR-3 = tested on: OVCAR-3

COc1ccc(N2C(=O)C3c4[nH]c5ccccc5c4C4CCC(C(C)(C)C)CC4C3C2=O)cc1OC (centres undefined) was tested, and the GI50 (LXFL 529) was 18.5 µM (inactive), the GI50 (SF-268) was 18.7 µM (inactive) and the GI50 (786-0) was 17.8 µM (inactive). For the same compound, the GI50 (UO-31) was 34.4 µM (inactive), the GI50 (KM-20L2) was 36.8 µM (inactive) and the GI50 (MOLT-4) was 15.6 µM (inactive). For the same compound, the GI50 (NCI-H23) was 34.6 µM (inactive), the GI50 (HCT-116) was 16.1 µM (inactive) and the GI50 (K562) was 28.2 µM (inactive). For the same compound, the GI50 (OVCAR-8) was 18.2 µM (inactive), the GI50 (CCRF-CEM) was 27.7 µM (inactive) and the GI50 (SF-295) was 20.4 µM (inactive). The GI50 (SW-620) was 26.7 µM (inactive), the GI50 (HOP-62) was 18 µM (inactive) and the GI50 (NCI-H522) was 15.4 µM (inactive). For the same compound, the GI50 (ACHN) was 22.1 µM (inactive), the GI50 (SNB-75) was 16.3 µM (inactive) and the GI50 (SNB-19) was 26.2 µM (inactive). For the same compound, the GI50 (A549) was 16.1 µM (inactive), the GI50 (M19-MEL) was 51.1 µM (inactive) and the GI50 (SK-MEL-28) was 71.1 µM (inactive). For the same compound, the GI50 (HT-29) was 33.9 µM (inactive), the GI50 (HCT-15) was 35 µM and the GI50 (HL-60) was 59.4 µM (inactive). For the same compound, the GI50 (SNB-78) was 19.3 µM (inactive), the GI50 (SF-539) was 18.6 µM (inactive) and the GI50 (A498) was 19.9 µM (inactive). For the same compound, the GI50 (HCC 2998) was 48.8 µM (inactive), the GI50 (M14) was 45.3 µM (inactive) and the GI50 (HOP-18) was 20.9 µM (inactive). For the same compound, the GI50 (UACC-257) was 67 µM (inactive), the GI50 (DMS-273) was 17.1 µM (inactive) and the GI50 (SK-OV-3) was 20.4 µM (inactive). The GI50 (UACC-62) was 63.4 µM (inactive), the GI50 (XF498) was 18.2 µM (inactive) and the GI50 (SK-MEL-5) was 46.3 µM (inactive). The GI50 (IGROV-1) was 33 µM (inactive), the GI50 (HOP-92) was 20.5 µM (inactive) and the GI50 (Malme-3M) was 38.4 µM (inactive). For the same compound, the GI50 (DLD-1) was 15.1 µM (inactive), the GI50 (SN12C) was 23 µM (inactive) and the GI50 (RXF 393) was 14.8 µM (inactive). The GI50 (NCI-H226) was 20 µM (inactive), the GI50 (COLO 205) was 31.2 µM (inactive) and the GI50 (OVCAR-4) was 21.9 µM (inactive). The GI50 (SR) was 18.1 µM (inactive), the GI50 (U-251) was 27.6 µM (inactive) and the GI50 (RPMI-8226) was 22.2 µM (inactive). The GI50 (EKVX) was 35.8 µM (inactive).

In the case of CCOC(=O)c1cc(/C=C/C(C)=C/C(=O)OC)oc1-c1ccccc1, the GI50 (TK-10) is reported as > 100 µM (inactive), the GI50 (SF-268) is reported as 40.8 µM (inactive) and the GI50 (786-0) is reported as > 100 µM (inactive). The GI50 (OVCAR-5) was > 100 µM (inactive), the GI50 (UO-31) was 35.4 µM (inactive) and the GI50 (KM-20L2) was 81.5 µM (inactive). For the same compound, the GI50 (LOX IMVI) was > 100 µM (inactive), the GI50 (MOLT-4) was 38.6 µM (inactive) and the GI50 (NCI-H23) was 61.8 µM (inactive). The GI50 (HCT-116) was 32.1 µM (inactive), the GI50 (K562) was 33.8 µM (inactive) and the GI50 (OVCAR-8) was 92.7 µM (inactive). For the same compound, the GI50 (CCRF-CEM) was 48.9 µM (inactive), the GI50 (SF-295) was 50.8 µM (inactive) and the GI50 (SW-620) was > 100 µM (inactive). The GI50 (NCI-H522) was 39.7 µM (inactive), the GI50 (ACHN) was 71.8 µM (inactive) and the GI50 (SNB-19) was 38.5 µM (inactive). For the same compound, the GI50 (A549) was 49.8 µM (inactive), the GI50 (M19-MEL) was > 100 µM (inactive) and the GI50 (KM12) was 48.4 µM (inactive). For the same compound, the GI50 (HT-29) was > 100 µM (inactive), the GI50 (HCT-15) was 58.9 µM and the GI50 (NCI-H460) was 65.3 µM (inactive). The GI50 (HL-60) was 46.2 µM (inactive), the GI50 (SF-539) was 43.9 µM (inactive) and the GI50 (A498) was > 100 µM (inactive). For the same compound, the GI50 (HCC 2998) was > 100 µM (inactive), the GI50 (CAKI-1) was 55.8 µM (inactive) and the GI50 (M14) was > 100 µM (inactive). The GI50 (SK-MEL-2) was > 100 µM (inactive), the GI50 (HOP-18) was 42.9 µM (inactive) and the GI50 (UACC-257) was 61.8 µM (inactive). The GI50 (DMS-273) was 92.5 µM (inactive), the GI50 (SK-OV-3) was > 100 µM (inactive) and the GI50 (UACC-62) was 41.3 µM (inactive). The GI50 (XF498) was > 100 µM (inactive), the GI50 (SK-MEL-5) was > 100 µM (inactive) and the GI50 (DMS-114) was 63.5 µM (inactive). The GI50 (IGROV-1) was 66.7 µM (inactive), the GI50 (Malme-3M) was > 100 µM (inactive) and the GI50 (DLD-1) was 66.7 µM (inactive). The GI50 (SN12C) was 73.8 µM (inactive), the GI50 (NCI-H226) was > 100 µM (inactive) and the GI50 (COLO 205) was > 100 µM (inactive). The GI50 (OVCAR-3) was 73.5 µM (inactive), the GI50 (OVCAR-4) was 63.5 µM (inactive) and the GI50 (U-251) was 50 µM (inactive). The GI50 (RPMI-8226) was 31.6 µM (inactive) and the GI50 (EKVX) was > 100 µM (inactive).

With NC1=NC(c2ccccc2)CC(c2cc(Cl)ccc2O)=N1 (centres undefined) the GI50 (TK-10) was 25.1 µM (inactive), the GI50 (LXFL 529) was 15 µM (inactive) and the GI50 (SF-268) was 16 µM (inactive). The GI50 (786-0) was 16.1 µM (inactive), the GI50 (OVCAR-5) was 19.9 µM (inactive) and the GI50 (UO-31) was 15.2 µM (inactive). For the same compound, the GI50 (KM-20L2) was 17.4 µM (inactive), the GI50 (LOX IMVI) was 15.5 µM (inactive) and the GI50 (MOLT-4) was 14.2 µM (inactive). The GI50 (NCI-H23) was 15.5 µM (inactive), the GI50 (HCT-116) was 14 µM (inactive) and the GI50 (K562) was 10.1 µM (inactive). The GI50 (OVCAR-8) was 16.2 µM (inactive), the GI50 (CCRF-CEM) was 22.1 µM (inactive) and the GI50 (SF-295) was 17.3 µM (inactive). For the same compound, the GI50 (SW-620) was 14.1 µM (inactive), the GI50 (HOP-62) was 16.2 µM (inactive) and the GI50 (NCI-H522) was 15.5 µM (inactive). For the same compound, the GI50 (ACHN) was 15.3 µM (inactive), the GI50 (SNB-75) was 17.7 µM (inactive) and the GI50 (SNB-19) was 16.7 µM (inactive). The GI50 (A549) was 14.3 µM (inactive), the GI50 (M19-MEL) was 14.5 µM (inactive) and the GI50 (SK-MEL-28) was 18.7 µM (inactive). The GI50 (KM12) was 13.7 µM (inactive), the GI50 (HT-29) was 17.5 µM (inactive) and the GI50 (NCI-H460) was 15.5 µM (inactive). The GI50 (HL-60) was 16.1 µM (inactive), the GI50 (SNB-78) was 19.5 µM (inactive) and the GI50 (SF-539) was 15 µM (inactive). For the same compound, the GI50 (A498) was 20.1 µM (inactive), the GI50 (HCC 2998) was 15.9 µM (inactive) and the GI50 (CAKI-1) was 14.9 µM (inactive). The GI50 (M14) was 16.9 µM (inactive), the GI50 (HOP-18) was 17.7 µM (inactive) and the GI50 (UACC-257) was 19.9 µM (inactive). The GI50 (DMS-273) was 13 µM (inactive), the GI50 (SK-OV-3) was 17.9 µM (inactive) and the GI50 (UACC-62) was 15.8 µM (inactive). The GI50 (XF498) was 19.6 µM (inactive), the GI50 (DMS-114) was 12.7 µM (inactive) and the GI50 (IGROV-1) was 19.3 µM (inactive). For the same compound, the GI50 (HOP-92) was 19.1 µM (inactive), the GI50 (Malme-3M) was 21.8 µM (inactive) and the GI50 (DLD-1) was 13.2 µM (inactive). For the same compound, the GI50 (SN12C) was 13.6 µM (inactive), the GI50 (RXF 393) was 17.3 µM (inactive) and the GI50 (NCI-H226) was 21.2 µM (inactive). For the same compound, the GI50 (COLO 205) was 19.5 µM (inactive), the GI50 (OVCAR-3) was 17.5 µM (inactive) and the GI50 (OVCAR-4) was 17.9 µM (inactive). For the same compound, the GI50 (SR) was 15.8 µM (inactive), the GI50 (U-251) was 16.3 µM (inactive) and the GI50 (RPMI-8226) was 15.2 µM (inactive). For the same compound, the GI50 (EKVX) was 15.3 µM (inactive).
